# Measurements: patent US10588962B2, “Carbohydrate-glycolipid conjugate vaccines” (Max-Planck-Gesellschaft zur Förderung der Wissenschaften …, priority 2012, dated 2020)
# Test: Immunogenic activity of further glycolipids conjugated to PS4
# Settings: glycolipid conjugated to PS4
substance,measurement,value
"(2S,3S,4R)-1-(6-(Carbonyl-1-ethyl-2-(tri(1-ethanoyl)1-ethanoyl-2-amino)-α-D-galactopyranosyl)-2-hexacosanoylaminooctadecane-3,4-diol [Compound 27a]",immunogenic activity,showed immunogenic activity
